Data from PMC11728000, “Antitumor Activity and Multi-Target Mechanism of Phenolic Schiff Bases Bearing Methanesulfonamide Fragments: Cell Cycle Analysis and a Molecular Modeling Study” (International Journal of Molecular Sciences, 2024).

Legend:
K-562 = test: NCI anticancer screening (SRB), Leukemia subpanel; format: cell-based, human; conditions: for GI%: 10.0 µM in one dose
KM12 = test: NCI anticancer screening (SRB), Colon Cancer subpanel; format: cell-based, human; conditions: for GI%: 10.0 µM in one dose
CCRF-CEM = test: NCI anticancer screening (SRB), Leukemia subpanel; format: cell-based, human; conditions: for GI%: 10.0 µM in one dose
MCF-7 = test: NCI anticancer screening (SRB), Breast Cancer subpanel; format: cell-based, human; conditions: for GI%: 10.0 µM in one dose
M14 = test: NCI anticancer screening (SRB), Melanoma subpanel; format: cell-based, human; conditions: for GI%: 10.0 µM in one dose
SR = test: NCI anticancer screening (SRB), Leukemia subpanel; format: cell-based, human; conditions: for GI%: 10.0 µM in one dose
MDA-MB-435 = test: NCI anticancer screening (SRB), Melanoma subpanel; format: cell-based, human; conditions: for GI%: 10.0 µM in one dose
HOP-92 = test: NCI anticancer screening (SRB), Non-Small Cell Lung Cancer subpanel; format: cell-based, human; conditions: for GI%: 10.0 µM in one dose
HER2 = HER2 (Homo sapiens, UniProt P04626); test: HER2 tyrosine kinase inhibition assay (ADP-Glo)
MALME-3M = test: NCI anticancer screening (SRB), Melanoma subpanel; format: cell-based, human; conditions: for GI%: 10.0 µM in one dose
EGFR = EGFR (Homo sapiens, UniProt P00533); test: EGFR tyrosine kinase inhibition assay (Kinase-Glo MAX)
RXF 393 = test: NCI anticancer screening (SRB), Renal Cancer subpanel; format: cell-based, human; conditions: for GI%: 10.0 µM in one dose
A498 = test: as above; format: cell-based, human; conditions: for GI%: 10.0 µM in one dose
DU-145 = test: NCI anticancer screening (SRB), Prostate Cancer subpanel; format: cell-based, human; conditions: for GI%: 10.0 µM in one dose
EKVX = test: NCI anticancer screening (SRB), Non-Small Cell Lung Cancer subpanel; format: cell-based, human; conditions: for GI%: 10.0 µM in one dose
PC-3 = test: NCI anticancer screening (SRB), Prostate Cancer subpanel; format: cell-based, human; conditions: for GI%: 10.0 µM in one dose
Bax = test: Apoptotic markers assay, Bax expression in MCF-7 cells; format: cell-based, human; conditions: MCF-7 cells treated at IC50 concentrations; vs untreated control = 1
Protocol: (§1) We measured the apoptosis promoter Bax levels, the apoptosis inhibitor Bcl−2, and the apoptosis coordination enzymes caspase-8 and caspase-9 [32].
(§2) The apoptotic marker method was carried out using the reported procedure using MCF-7, the cancer cell line (Supplementary Materials). […]
(cells are Plated […]
in a density of 1.2-1.8 X 10,000 cells/well in a volume of 100 µL complete growth medium + 100 µL of the tested compound per well in a 96-well plate for 24/48 h before the enzyme assay).
8. Evaluation of Bax and Bcl-2 expressions m RNA isolation was carried out using an RNeasy extraction kit, up to 1 X 107 cells. They were disrupted in Buffer RLT and homogenized. Ethanol was added to the lysate to promote the selective binding of RNA to the RNeasy membrane. Then, the sample was applied to the RNeasy […]
Mini spin column. Total RNA bound to the membrane. High-quality RNA was eluted using […]
(1 picture or pasted object on this page, not shown here)

MDA-MB-468 = test: NCI anticancer screening (SRB), Breast Cancer subpanel; format: cell-based, human; conditions: for GI%: 10.0 µM in one dose
NCI-H23 = test: NCI anticancer screening (SRB), Non-Small Cell Lung Cancer subpanel; format: cell-based, human; conditions: for GI%: 10.0 µM in one dose
SF-539 = test: NCI anticancer screening (SRB), CNS Cancer subpanel; format: cell-based, human; conditions: for GI%: 10.0 µM in one dose
HL-60(TB) = test: NCI anticancer screening (SRB), Leukemia subpanel; format: cell-based, human; conditions: for GI%: 10.0 µM in one dose
SN12C = test: NCI anticancer screening (SRB), Renal Cancer subpanel; format: cell-based, human; conditions: for GI%: 10.0 µM in one dose
SF-268 = test: NCI anticancer screening (SRB), CNS Cancer subpanel; format: cell-based, human; conditions: for GI%: 10.0 µM in one dose
SK-OV-3 = test: NCI anticancer screening (SRB), Ovarian Cancer subpanel; format: cell-based, human; conditions: for GI%: 10.0 µM in one dose
caspase-8 = test: Apoptotic markers assay, caspase-8 level in MCF-7 cells; format: cell-based, human; conditions: MCF-7 cells treated at IC50 concentrations; vs untreated control = 1
Protocol: as §1, §2
(§3) 7. Caspase-8 and 9 activation assay
(§4) A breast carcinoma (MCF-7) cell line was obtained from ATCC. […]
allowed cells to grow at 37 °C, stimulated with the compounds to be tested for caspase-8 or caspase-9 and lysed with Cell Extraction Buffer. Standard Diluent Buffer was used to dilute the lysate over the range of the assay and measure human active caspase-8 or caspase-9 content. (cells are Plated in a density of 1.2-1.8 X 10,000 cells/well in a volume of 100 µL complete growth medium + 100 µL of the tested compound per well in a 96-well plate for 24/48 h before the enzyme assay).
8. Evaluation of Bax and Bcl-2 expressions m RNA isolation was carried out using an RNeasy extraction kit, up to 1 X 107 cells. They were disrupted in Buffer RLT and homogenized. Ethanol was added to the lysate to promote the selective binding of RNA to the RNeasy membrane. Then, the sample was applied to the RNeasy

UACC-62 = test: NCI anticancer screening (SRB), Melanoma subpanel; format: cell-based, human; conditions: for GI%: 10.0 µM in one dose
OVCAR-4 = test: NCI anticancer screening (SRB), Ovarian Cancer subpanel; format: cell-based, human; conditions: for GI%: 10.0 µM in one dose
SK-MEL-5 = test: NCI anticancer screening (SRB), Melanoma subpanel; format: cell-based, human; conditions: for GI%: 10.0 µM in one dose
HCC-2998 = test: NCI anticancer screening (SRB), Colon Cancer subpanel; format: cell-based, human; conditions: for GI%: 10.0 µM in one dose
Bcl-2 = test: Apoptotic markers assay, Bcl-2 expression in MCF-7 cells; format: cell-based, human; conditions: MCF-7 cells treated at IC50 concentrations; vs untreated control = 1
Protocol: as §1, §2
photomultiplier voltage and for compensation setting adjustment to eliminate spectral overlap between the FL1 and the FL2 signals.
6. Cell cycle analysis
Breast carcinoma (MCF-7) cell was seeded at 2 × 10^5 cells/well density and incubated for 24 h in six-well plates. Foetal bovine serum (10%) was added, and the cells were incubated at 37 °C in an atmosphere of 5% CO2. The medium was replaced with 1% (v/v) DMSO containing 10.0 μM of […]
with 70% ethanol, rinsed with phosphate-buffered saline, and then stained with the DNA fluorochrome propidium iodide (PI) for 15 min at 37 °C. Then, samples were analyzed by flow cytometry using a FACSCalibur (Becton Dickinson). The cell cycle distributions were calculated using CellQuest software (Becton Dickinson).
as §3, §4
allowed cells to grow at 37 °C, stimulated with the compounds to be tested for caspase-8 or caspase-9 and lysed with Cell Extraction Buffer. […]

HCT-116 = test system: HCT-116; parameters: method as in https://dtp.cancer.gov/dtpstandard/dwindex/index.jsp; conditions: ref https://dtp.cancer.gov/dtpstandard/dwindex/index.jsp; cited from earlier work
[1] = Homo sapiens, five concentrations

Chain of EGFR (P00533 25-1210): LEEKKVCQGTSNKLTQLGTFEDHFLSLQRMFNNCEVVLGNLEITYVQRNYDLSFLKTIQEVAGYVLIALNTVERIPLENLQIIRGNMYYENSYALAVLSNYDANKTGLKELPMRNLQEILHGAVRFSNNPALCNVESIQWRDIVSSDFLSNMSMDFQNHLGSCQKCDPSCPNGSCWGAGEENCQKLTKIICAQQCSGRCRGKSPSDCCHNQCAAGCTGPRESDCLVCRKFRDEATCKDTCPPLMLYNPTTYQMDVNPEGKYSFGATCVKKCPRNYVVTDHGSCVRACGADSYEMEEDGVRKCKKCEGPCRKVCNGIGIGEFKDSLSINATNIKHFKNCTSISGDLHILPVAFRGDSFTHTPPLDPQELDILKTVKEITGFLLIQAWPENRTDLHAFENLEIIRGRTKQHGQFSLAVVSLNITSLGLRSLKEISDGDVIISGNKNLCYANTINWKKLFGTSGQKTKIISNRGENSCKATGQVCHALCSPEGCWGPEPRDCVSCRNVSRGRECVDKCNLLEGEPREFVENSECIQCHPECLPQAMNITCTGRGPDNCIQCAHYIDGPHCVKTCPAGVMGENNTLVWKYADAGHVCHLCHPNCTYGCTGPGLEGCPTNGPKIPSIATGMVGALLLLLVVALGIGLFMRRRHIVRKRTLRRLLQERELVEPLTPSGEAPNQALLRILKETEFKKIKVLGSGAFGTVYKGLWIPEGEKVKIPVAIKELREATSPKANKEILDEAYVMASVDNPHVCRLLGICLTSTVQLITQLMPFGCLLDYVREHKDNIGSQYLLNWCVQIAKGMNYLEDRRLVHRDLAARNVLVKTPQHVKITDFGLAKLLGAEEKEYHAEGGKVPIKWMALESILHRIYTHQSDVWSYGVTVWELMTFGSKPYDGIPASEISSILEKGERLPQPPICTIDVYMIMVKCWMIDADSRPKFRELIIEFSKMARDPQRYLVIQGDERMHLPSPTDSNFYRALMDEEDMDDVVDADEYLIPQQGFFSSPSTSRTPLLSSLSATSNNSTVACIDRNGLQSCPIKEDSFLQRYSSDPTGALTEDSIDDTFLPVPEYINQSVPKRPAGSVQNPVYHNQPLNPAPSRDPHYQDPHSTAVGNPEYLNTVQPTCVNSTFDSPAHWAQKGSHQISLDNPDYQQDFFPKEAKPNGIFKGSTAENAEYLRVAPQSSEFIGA
Chain of HER2 (P04626 23-1255): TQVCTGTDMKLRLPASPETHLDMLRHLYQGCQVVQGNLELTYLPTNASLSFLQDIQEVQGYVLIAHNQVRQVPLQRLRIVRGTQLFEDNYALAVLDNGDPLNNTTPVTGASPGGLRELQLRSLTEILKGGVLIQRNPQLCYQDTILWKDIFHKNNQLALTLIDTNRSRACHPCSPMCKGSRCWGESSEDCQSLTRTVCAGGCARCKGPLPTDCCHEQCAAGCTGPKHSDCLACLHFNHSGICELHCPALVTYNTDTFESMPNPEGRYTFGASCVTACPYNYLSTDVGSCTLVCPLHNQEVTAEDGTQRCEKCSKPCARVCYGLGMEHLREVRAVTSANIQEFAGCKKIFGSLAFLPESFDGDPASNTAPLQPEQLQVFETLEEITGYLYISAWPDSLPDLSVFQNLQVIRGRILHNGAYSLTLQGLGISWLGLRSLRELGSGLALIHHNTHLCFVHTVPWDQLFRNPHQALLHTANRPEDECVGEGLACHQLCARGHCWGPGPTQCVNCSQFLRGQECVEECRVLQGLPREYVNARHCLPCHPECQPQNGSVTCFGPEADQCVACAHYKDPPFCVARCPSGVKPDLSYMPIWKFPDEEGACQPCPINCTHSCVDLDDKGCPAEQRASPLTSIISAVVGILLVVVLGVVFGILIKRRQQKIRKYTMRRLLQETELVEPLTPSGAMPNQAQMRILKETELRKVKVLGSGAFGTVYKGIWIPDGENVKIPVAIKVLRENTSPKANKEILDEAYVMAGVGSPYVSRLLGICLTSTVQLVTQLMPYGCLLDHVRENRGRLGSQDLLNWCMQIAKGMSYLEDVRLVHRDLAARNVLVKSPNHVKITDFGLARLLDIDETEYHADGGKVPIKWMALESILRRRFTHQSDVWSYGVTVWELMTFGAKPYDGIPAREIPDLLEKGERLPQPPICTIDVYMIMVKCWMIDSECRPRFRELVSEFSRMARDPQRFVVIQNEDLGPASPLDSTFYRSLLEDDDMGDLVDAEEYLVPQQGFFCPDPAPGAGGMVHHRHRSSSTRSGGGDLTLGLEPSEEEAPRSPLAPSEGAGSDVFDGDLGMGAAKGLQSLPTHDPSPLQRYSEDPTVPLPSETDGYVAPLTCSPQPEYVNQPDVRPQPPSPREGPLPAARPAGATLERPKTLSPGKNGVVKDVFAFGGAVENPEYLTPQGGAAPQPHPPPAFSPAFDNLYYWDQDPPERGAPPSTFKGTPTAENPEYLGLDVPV

Compound CS(=O)(=O)Nc1ccc(C(=O)NN=Cc2ccccc2O)cc1 [Compound 7] has a GI% (K-562) of 26%, a GI% (KM12) of 35% and a GI% (CCRF-CEM) of 63%. For the same compound, the GI% (MCF-7) was 21%, the GI% (M14) was 44% and the GI% (SR) was 67%. It also gave a GI% (MDA-MB-435) of 24%, a GI% (HOP-92) of 44% and an IC50 (HER2) of 183 ± 11 nM. For the same compound, the GI% (MALME-3M) was 24%, the IC50 (EGFR) was 752 ± 50 nM and the GI% (RXF 393) was 21%. The GI% (A498) was 16%, the GI% (DU-145) was 33% and the GI% (EKVX) was 26%. For the same compound, the GI% (PC-3) was 38%, the “Bax, Gene Expression (Fold Change)” value (Bax) was 5.02 fold change and the GI% (MDA-MB-468) was 24%. The GI% (NCI-H23) was 27%, the GI% (SF-539) was 40% and the GI% (HL-60(TB)) was 22%. For the same compound, the GI% (SN12C) was 23%, the GI% (SF-268) was 48% and the GI% (SK-OV-3) was 42%. For the same compound, the “Casp8, Gene Expression (Fold Change)” value (caspase-8) was 5.171 fold change, the GI% (UACC-62) was 35% and the GI% (OVCAR-4) was 53%. The GI% (SK-MEL-5) was 33%, the GI% (HCC-2998) was 41% and the “Bcl2, Gene Expression (Fold Change)” value (Bcl-2) was 0.201 fold change.
Work on CCN(CC)c1ccc(C=NNC(=O)c2ccc(NS(C)(=O)=O)cc2)c(O)c1 [Compound 8] yielded a GI% (K-562) of 86%, a GI50 (K-562; Homo sapiens, K562, five concentrations) of 492 nM and a GI% (KM12) of 85%. It also gave a GI50 (KM12; [1]) of 509 nM, a GI% (CCRF-CEM) of 94% and a GI50 (CCRF-CEM; [1]) of 177 nM. For the same compound, the GI% (MCF-7) was 94%, the GI50 (MCF-7; Homo sapiens, MCF7, five concentrations) was 416 nM and the GI% (M14) was 100%. The GI50 (M14; [1]) was 351 nM, the GI% (SR) was 89% and the GI50 (SR; [1]) was 141 nM. It also gave a GI% (MDA-MB-435) of 71%, a GI50 (MDA-MB-435; [1]) of 558 nM and a GI% (HOP-92) of 61%. For the same compound, the GI50 (HOP-92; [1]) was 443 nM, the IC50 (HER2) was 464 ± 18 nM and the GI% (MALME-3M) was 96%. The GI50 (MALME-3M; [1]) was 855 nM, the IC50 (EGFR) was 166 ± 33 nM and the GI% (RXF 393) was greater than 100%. The GI50 (RXF 393; [1]) was 1040 nM, the GI% (A498) was 81% and the GI50 (A498; [1]) was 2230 nM. It also gave a GI% (DU-145) of 69%, a GI50 (DU-145; [1]) of 685 nM and a GI% (EKVX) of 84%. For the same compound, the GI50 (EKVX; [1]) was 386 nM, the GI% (PC-3) was 68% and the GI50 (PC-3; [1]) was 368 nM. The “Bax, Gene Expression (Fold Change)” value (Bax) was 5.456 fold change, the GI% (MDA-MB-468) was greater than 100% and the GI50 (MDA-MB-468; [1]) was 335 nM. It also gave a GI% (NCI-H23) of 77%, a GI50 (NCI-H23; [1]) of 1160 nM and a GI% (SF-539) of 93%. It also gave a GI50 (SF-539; [1]) of 362 nM, a GI% (HL-60(TB)) of 99% and a GI50 (HL-60(TB); [1]) of 300 nM. For the same compound, the GI% (SN12C) was 69%, the GI50 (SN12C; [1]) was 603 nM and the GI% (SF-268) was 77%. For the same compound, the GI50 (SF-268; [1]) was 252 nM, the GI% (SK-OV-3) was 66% and the GI50 (SK-OV-3; [1]) was 450 nM. The “Casp8, Gene Expression (Fold Change)” value (caspase-8) was 6.456 fold change, the GI% (UACC-62) was 100% and the GI50 (UACC-62; [1]) was 375 nM. The GI% (OVCAR-4) was 69%, the GI50 (OVCAR-4; [1]) was 388 nM and the GI% (SK-MEL-5) was 100%. The GI50 (SK-MEL-5; [1]) was 1130 nM, the GI% (HCC-2998) was 62% and the GI50 (HCC-2998; [1]) was 356 nM. The “Bcl2, Gene Expression (Fold Change)” value (Bcl-2) was 0.232 fold change.
For C#Cc1cccc(Nc2ncnc3cc(OCCOC)c(OCCOC)cc23)c1 [Erlotinib, erlotinib], the GI50 (HCT-116) is given as 6310 nM.
In the case of COc1cc2ncnc(Nc3ccc(F)c(Cl)c3)c2cc1OCCCN1CCOCC1 [Gefitinib, gefitinib], the GI50 (HCT-116) is given as 3160 nM.
